In article PMC7156458, “Synthetic biology based construction of biological activity-related library of fungal decalin-containing diterpenoid pyrones” (Nature Communications, 2020):
Values joined by “and” are separate entries in the source; they are usually repeats but may differ in a detail not shown here. Equal values may be shown once. Read-outs that look alike come from different tables or passages of the source.

Assays:
[1] = system: human immunodeficiency virus-1 (HIV-1); assay: anti-HIV MAGI assay; assay type: cell-based; settings: anti-HIV
Text: We examined the inhibitory activities of DDPs against various species of bacteria (both gram-negative and gram-positive bacteria), fungi and viruses. […] In contrast, preliminary screening of the DDPs for anti-viral agents with hepatitis B virus (HBV), measles virus (MV), Epstein-Barr virus (EBV), herpes simplex virus (HSV) and human immunodeficiency virus-1 (HIV-1) indicated their selective inhibition of HIV.

[2] = cytotoxicity in Drosophila l(2)mbn cells; assay type: cell-based; settings: Drosophila, l(2)mbn cells (larval blood cell-derived)
Procedure: (§1) We screened the DDPs on the Drosophila assay system for cytotoxicity, inhibitory activity of innate immune signalling and insecticidal activity. The cytotoxicity of the DDPs was evaluated using two cell lines, embryonic macrophage-derived DL1 cells[58]–[60] and larval blood cell-derived l(2)mbn cells, and their IC50 values are listed in Supplementary Table 23.

l(2)mbn cells = assay: cytotoxicity in Drosophila l(2)mbn cells; assay type: cell-based; settings: for Luminescence Raw1: replicate 1; for Luminescence Raw2: replicate 2; for IC50: Drosophila melanogaster, cytotoxicity
Procedure: as §1

MCF-7 cells = assay: cell cytotoxic effects against MCF-7 cells (72 h), A490; assay type: cell-based, human
[3] = cytotoxicity in Drosophila DL1 cells; assay type: cell-based; settings: Drosophila, DL1 cells (embryonic macrophage-derived), DL1 cells
Procedure: as §1

DL1 cells = assay: cytotoxicity in Drosophila DL1 cells; assay type: cell-based; settings: for IC50: Drosophila melanogaster
Procedure: as §1

MAGI cells = assay: cytotoxicity in the anti-HIV assay (CC50); assay type: cell-based; settings: single determinations
[4] = replicate 1, relative to DMSO 1%, read-out: % viability, viability 1
[5] = replicate 2, relative to DMSO 1%, read-out: % viability, viability 2

C=C1CC[C@H]2[C@]3(C)C[C@@H](C=C(C)C)O[C@H]3CC[C@]2(C)[C@@H]1Cc1c(O)c(C)c(C)oc1=O [Compound 5, subglutinol A]
EC50 ([1]; Human immunodeficiency virus 1, MAGI, MAGI assay, read-out: EC50): < 200 nM | EC50 ([1]; Human immunodeficiency virus 1, MAGI, average of numeric determinations, read-out: Avg. EC50): 38.9 nM | EC50 ([1]; Human immunodeficiency virus 1, MAGI, single determinations, read-out: Efficacy (EC50)): 36.3 nM | EC50 ([1]; single determinations, read-out: Efficacy (EC50)): 29.8 nM and 37.9 nM and 51.4 nM | viability at 0.04 µM [2, 4]: 139% | viability at 0.04 µM [2, 5]: 137% | viability at 0.2 µM [2, 4]: 19.9% | viability at 0.2 µM [2, 5]: 17% | viability at 1 µM [2, 4]: 8.99% | viability at 1 µM [2, 5]: 8.5% | viability at 4 µM [2, 4]: 8.31% | viability at 4 µM [2, 5]: 7.53% | viability at 10 µM [2, 4]: 8.2% | viability at 10 µM [2, 5]: 8.05% | viability at 20 µM [2, 4]: 7.67% | viability at 20 µM [2, 5]: 7.74% | Luminescence Raw1 (l(2)mbn cells; 0.04 µM): 3571044 | Luminescence Raw2 (l(2)mbn cells; 0.04 µM): 3503586 | Luminescence Raw1 (l(2)mbn cells; 0.2 µM): 510842 | Luminescence Raw2 (l(2)mbn cells; 0.2 µM): 436923 | Luminescence Raw1 (l(2)mbn cells; 1 µM): 230676 | Luminescence Raw2 (l(2)mbn cells; 1 µM): 218056 | Luminescence Raw1 (l(2)mbn cells; 4 µM): 213369 | Luminescence Raw2 (l(2)mbn cells; 4 µM): 193177 | Luminescence Raw1 (l(2)mbn cells; 10 µM): 210485 | Luminescence Raw2 (l(2)mbn cells; 10 µM): 206518 | Luminescence Raw1 (l(2)mbn cells; 20 µM): 196783 | Luminescence Raw2 (l(2)mbn cells; 20 µM): 198586 | IC50 (l(2)mbn cells; average of two replicates, read-out: IC50 Average): 190 nM | IC50 (l(2)mbn cells; average±SEM, read-out: IC50): 190 ± 10 nM | IC50 (l(2)mbn cells; replicate 1, read-out: IC50 (1)): 194 nM | IC50 (l(2)mbn cells; replicate 2, read-out: IC50 (2)): 180 nM | cytotoxicity against the bulk of MCF-7 cells (MCF-7 cells): dose-dependent cytotoxicity | viability at 0.1 µM (MCF-7 cells; Homo sapiens, MCF7, 72 h, MCF-7, 72 h, 0.1 µM (DMSO 0.002%), read-out: A490 (control =1) ave): 45.9% | viability at 1 µM (MCF-7 cells; Homo sapiens, MCF7, 72 h, MCF-7, 72 h, 1 µM (DMSO 0.02%), read-out: A490 (control =1) ave): 45.5% | viability at 10 µM (MCF-7 cells; Homo sapiens, MCF7, 72 h, MCF-7, 72 h, 10 µM (DMSO 0.2%), read-out: A490 (control =1) ave): 8.4% | A490 ave (MCF-7 cells; MCF-7, 72 h, 0.1 µM (DMSO 0.002%), control 1.064): 0.489 | A490 ave (MCF-7 cells; MCF-7, 72 h, 1 µM (DMSO 0.02%), control 1.104): 0.503 | A490 ave (MCF-7 cells; MCF-7, 72 h, 10 µM (DMSO 0.2%), control 1.049): 0.088 | viability at 0.04 µM [3, 4]: 6.35% | viability at 0.04 µM [3, 5]: 8.13% | viability at 0.2 µM [3, 4]: 3.78% | viability at 0.2 µM [3, 5]: 4.95% | viability at 1 µM [3, 4]: 3.62% | viability at 1 µM [3, 5]: 3.84% | viability at 4 µM [3, 4]: 3.94% | viability at 4 µM [3, 5]: 4.03% | viability at 10 µM [3, 4]: 3.69% | viability at 10 µM [3, 5]: 4.2% | viability at 20 µM [3, 4]: 3.33% | viability at 20 µM [3, 5]: 3.4% | Luminescence Raw1 (DL1 cells; DL1 cells, 0.04 µM, replicate 1): 261750 | Luminescence Raw2 (DL1 cells; DL1 cells, 0.04 µM, replicate 2): 334946 | Luminescence Raw1 (DL1 cells; DL1 cells, 0.2 µM, replicate 1): 155744 | Luminescence Raw2 (DL1 cells; DL1 cells, 0.2 µM, replicate 2): 204060 | Luminescence Raw1 (DL1 cells; DL1 cells, 1 µM, replicate 1): 149254 | Luminescence Raw2 (DL1 cells; DL1 cells, 1 µM, replicate 2): 158268 | Luminescence Raw1 (DL1 cells; DL1 cells, 4 µM, replicate 1): 162234 | Luminescence Raw2 (DL1 cells; DL1 cells, 4 µM, replicate 2): 166201 | Luminescence Raw1 (DL1 cells; DL1 cells, 10 µM, replicate 1): 152139 | Luminescence Raw2 (DL1 cells; DL1 cells, 10 µM, replicate 2): 173051 | Luminescence Raw1 (DL1 cells; DL1 cells, 20 µM, replicate 1): 137356 | Luminescence Raw2 (DL1 cells; DL1 cells, 20 µM, replicate 2): 139880 | IC50 (DL1 cells; DL1 cells, cytotoxicity, average of two replicates, read-out: IC50 Average): < 40 nM | IC50 (DL1 cells; DL1 cells, cytotoxicity, replicate 1, read-out: IC50 (1)): < 40 nM | IC50 (DL1 cells; DL1 cells, cytotoxicity, replicate 2, read-out: IC50 (2)): < 40 nM | IC50 (DL1 cells; DL-1 cell line, cell growth, read-out: IC50): < 40 nM | Cytotoxicity (MAGI cells): >10 µM
